Measured values reported in US8461085B2, “Bioherbicide from Festuca spp” (Cornell Research Foundation, Inc., priority 2005, dated 2013).
Entries after “also recorded” stand apart in the source; their conditions may differ.

Columns and labels:
[1] = tested on: Arabidopsis thaliana seedlings; test: Arabidopsis root growth inhibition in growth media; type: in vivo; details: for relative toxicity of the D, L and DL forms: Arabidopsis thaliana seedlings
[2] = tested on: lettuce seedlings (Lactuca sativa L.); test: Petri-dish bioassay, radicle elongation in lettuce seedlings; type: in vivo; details: lettuce seedlings

| SMILES | toxicity of the three forms at 40 μM [1] | relative toxicity of the D, L and DL forms [1] | other results |
| --- | --- | --- | --- |
| NC(Cc1cccc(O)c1)C(=O)O (stereo not drawn) [DL m-tyrosine] | same level of toxicity | roughly equal toxicity |  |
| N[C@@H](Cc1cccc(O)c1)C(=O)O [L-m-tyrosine, L-3′-hydroxyphenylalanine] | same level of toxicity | roughly equal toxicity |  |
| N[C@@H](Cc1ccccc1)C(=O)O [phenylalanine, reference compound] |  |  | root growth restored by addition of phenylalanine ([1]; root growth inhibition initiated by m-tyrosine): 80 % of the control levels |
| N[C@H](Cc1cccc(O)c1)C(=O)O [D-m-tyrosine] | same level of toxicity | less toxic at low concentrations |  |
| N[C@@H](Cc1ccc(O)cc1)C(=O)O [p-tyrosine, tyrosine] |  |  | rescue of root growth inhibition initiated by 3 μM of m-tyrosine ([1]; concentrations up to 1 mM): did not rescue; phytotoxicity [2]: no toxicity; also recorded: not phytotoxic |
| O=C(O)C(=O)Cc1cccc(O)c1 [m-hydroxyphenylpyruvic acid] |  |  | toxicity compared with m-tyrosine ([1]; Arabidopsis root growth): as toxic as m-tyrosine; root growth of Arabidopsis when phenylalanine is added to the media ([1]; in vivo): not rescued |
| N[C@@H](Cc1ccccc1O)C(=O)O [o-tyrosine, 2′-hydroxyphenylalanine] |  |  | phytotoxicity [2]: no toxicity; also recorded: not phytotoxic; also recorded: devoid of herbicidal activity |
